From patent publication US20020155126A1, “Pharmacological composition containing yeast cell wall fraction” (priority 2001, published 2002)

Columns and labels:
[1] = tested on: NC/Nga mice (model for delayed-type hypersensitivity); assay: Test Example 5: inhibition effect of delayed-type hypersensitivity, NC/Nga mice; assay type: in vivo
Protocol: The same test mice and test foodstuff as in Test Example 4 were used to conduct a test on the inhibition effect of delayed-type hypersensitivity. The NC/Nga mice, as described above, are known as a model for atopic dermatitis, but can also be used as a model for delayed-type hypersensitivity. The administration of test foodstuff to the test mice was continued until the end of the test. Hapten sensitization was conducted 1 week after the commencement of the foodstuff administration, hapten challenge was conducted 1 week thereafter upon measuring the thickening of the auricle portion prior to the challenge, and measurement of the thickening of the auricle portion 24 hours later was conducted once again. Hapten sensitization was conducted by applying picryl chloride 7% by weight ethanol solution 100 μl to the abdomen, and the hapten challenge was conducted by applying picryl chloride 1% by weight olive oil solution 10 μl to both faces of each auricle portion. The anti-inflammation effect was measured by seeking the edema ratio and tumidity from the aforementioned test results. […]

[2] = tested on: NC/Nga mice (models for atopic dermatitis); assay: Test Example 4: anti-atopic dermatitis test, NC/Nga mice, picryl chloride hapten challenge; assay type: in vivo
Protocol: Next, test was conducted on the anti-atopic dermatitis effect of the yeast cell wall fraction. As a test specimen, NC/Nga mice (5.5 weeks old) were preliminarily raised for 2 weeks with solid foodstuff (CE-2, manufactured by Clea Japan, Inc.) and, after adaptation to the experimental environment, were used upon being separated into groups of 7 mice each. […] Hapten sensitization was conducted 1 week after the commencement of test foodstuff administration, and the initial (first) hapten challenge was conducted a week thereafter, and a hapten challenge was conducted for each elapsed week thereafter, and the final (eighth) hapten challenge was conducted […] after the commencement of test foodstuff administration. […] In the aforementioned anti-atopic dermatitis test, the clinical score and total plasma IgE level were measured with time. […] The clinical score was comprehensively evaluated in […] evaluation phases of score (0)none, (1)mild, (2)moderate, (3)severe, regarding the 5 symptoms of acomia of scalp; bleeding and erosion of scalp; bleeding and erosion of auricle portion; corpulence, edema, and purpura of auricle portion; and deformation and disappearance of auricle porition. […]

[3] = after the completion of administration of the test foodstuff

Final Weight, Mean [1, 3]: 24.2 g
Ingestion, Mean ([1]; daily foodstuff ingestion amount, delayed-type hypersensitivity test): 4.2 g/day
Final Weight, Mean [2, 3]: 25.9 g
Ingestion, Mean ([2]; daily foodstuff ingestion amount, anti-atopic dermatitis test): 4.05 g/day
SMILES: OC[C@H]1O[C@H](OC[C@H]2O[C@H](O[C@]3(CO)O[C@H](CO)[C@@H](O)[C@@H]3O)[C@H](O)[C@@H](O)[C@@H]2O)[C@H](O)[C@@H](O)[C@H]1O [Raffinose]
